Experimental data as given in US11028090B2 (Dong Wha Pharm. Co., Ltd., priority 2017, dated 2021).
Where a name gives a salt, the structure may show the parent alone. Read-outs that look alike come from different tables or passages of the source.

Key:
[1] = biological target: BRD4 (BD1+BD2) bromodomain (Homo sapiens (Human), UniProt O60885); assay: BRD4 binding inhibition (AlphaScreen, GST-BRD4 vs tetraacetylated histone H4 peptide)
Method in brief: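 GST-BRD4 (BD1+BD2) and biotinylated tetraacetyl-histone H4 peptide, each at 100 nM in HEPES pH 7.4 buffer with BSA and DTT, were combined with compound. Glutathione acceptor and streptavidin donor beads were added, then incubated 30 min at room temperature in the dark. Read-out was AlphaScreen signal.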

[2] = tested on: acute myelogenous leukemia cells (MV-4-11 cells); assay: Cytotoxicity to acute myelogenous leukemia cells (MV-4-11 cells), CCK-8; settings: Homo sapiens, MV4-11, 72 h
[3] = GST-BRD4 (BD1+BD2) / biotinylated acetyl-histone H4 (Lys5,8,12,16) peptide, read-out: IC50, BRD4 binding inhibition
[4] = GST-BRD4 (BD1+BD2) vs biotinylated acetyl-histone H4 peptide, AlphaScreen, read-out: BRD4 IC50
[5] = read-out: MV-4-11 Cytotoxicity IC50
[6] = read-out: IC50, cytotoxicity against acute myelogenous leukemia cells

| Structure (SMILES) | IC50 [1, 3] | IC50 [1, 4] | IC50 [2, 5] | IC50 [2, 6] |
| --- | --- | --- | --- | --- |
| COc1cc2nc(NCCCCNC(=O)c3ccccc3Cl)c3nnc(C)n3c2cc1C [Example 470] |  | 63 nM | 220 nM |  |
| CCc1nnc2c(NCCCCNC(=O)OCC(C)C)nc3cc(OC)c(OC)cc3n12 [Example 598, [4-(1-ethyl-7,8-dimethoxy-[1,2,4]triazolo[4,3-a]quinoxaline-4-ylamino)-butyl]-carbamic acid isobutylester] | ≤ 50 nM | 18 nM | 290 nM |  |
| Cc1nnc2c(NCCCCNC(=O)[C@@H](N)C(C)C)nc3cc(N4CC(C)OC(C)C4)ccc3n12 (stereo partly drawn) [Example 514, 2-(S)-amino-N-{4-[7-(2,6-dimethyl-morpholine-4-yl)-1-methyl-[1,2,4]triazolo[4,3-a]quinoxaline-4-ylamino]-butyl}-3-methyl-butyramide hydrochloride] |  | 60 nM | 432 nM |  |
| Cc1nnc2c(NCCCCNC(=O)Cc3cccs3)nc3cc(OCCN4CCOCC4)ccc3n12 [Example 438, N-{4-[1-methyl-7-(2-morpholine-4-yl-ethoxy)-[1,2,4]triazolo[4,3-a]quinoxaline-4-ylamino]-butyl}-2-thiophene-2-yl-acetamide] | ≤ 50 nM | 37 nM | 33 nM | ≤ 200 nM |
| Cc1nnc2c(NCCCCNC(=O)[C@@H](NC(=O)[C@@H](F)C(C)C)C(C)C)nc3cc(N4C[C@@H](C)O[C@@H](C)C4)ccc3n12 [Example 517] | ≤ 50 nM | 38 nM | 236 nM |  |
| Cc1nnc2c(NCCCCN)nc3cc4c(cc3n12)OCCO4 [Example 179, N^1-(1-methyl-8,9-dihydro-7,10-dioxa-2,3,5,11b-tetraaza-cyclopenta[a]anthracene-4-yl)-butane-1,4-diamine ditrifluoroacetic acid] | ≤ 50 nM | 35 nM | 640 nM |  |
| COc1ccc2c(c1)nc(NCCCCNC(=O)Cc1ccco1)c1nnc(C)n12 [Example 308, 2-furan-2-yl-N-[4-(7-methoxy-1-methyl-[1,2,4]triazolo[4,3-a]quinoxaline-4-ylamino)-butyl]-acetamide] |  | 58 nM | 20 nM | ≤ 200 nM |
| COc1cc2nc(NCCCCNC(=O)c3ccc(C(C)(C)C)cc3)c3nnc(C)n3c2cc1OC [Example 96, 4-tert-butyl-N-[4-(7,8-dimethoxy-1-methyl-[1,2,4]triazolo[4,3-a]quinoxaline-4-ylamino)-butyl]-benzamide] | ≤ 50 nM |  | 630 nM |  |
| COc1ccc2c(c1)nc(NCCCCNC(=O)[C@@H](F)C(C)C)c1nnc(C)n12 [Example 286, 2-(S)-fluoro-N-[4-(7-methoxy-1-methyl-[1,2,4]triazolo[4,3-a]quinoxaline-4-ylamino)-butyl]-3-methyl-butyramide] | ≤ 50 nM | 30 nM | 26 nM | ≤ 200 nM |
| C/C=C/C(=O)NCCCCNc1nc2cc(OCCOC)ccc2n2c(C)nnc12 [Example 379, butene-2-oic acid{4-[7-(2-methoxy-ethoxy)-1-methyl-[1,2,4]triazolo[4,3-a]quinoxaline-4-ylamino]-butyl}-amide] | ≤ 50 nM | 17 nM | 420 nM |  |
| COc1ccc2c(c1)nc(NCCCCNC(=O)Cc1ccccc1)c1nnc(C)n12 [Example 329, N-[4-(7-methoxy-1-methyl-[1,2,4]triazolo[4,3-a]quinoxaline-4-ylamino)-butyl]-2-phenyl-acetamide] | ≤ 50 nM | 35 nM | 19 nM | ≤ 200 nM |
| COc1ccc2c(c1)nc(NCCCCNC(=O)C(NC(=O)OC(C)(C)C)C(C)C)c1nnc(C)n12 (stereo not shown) [Example 310, {1-[4-(7-methoxy-1-methyl-[1,2,4]triazolo[4,3-a]quinoxaline-4-ylamino)-butylcarbamoyl]-2-methyl-propyl}-carbamic acid-tert-butylester] | ≤ 50 nM | 42 nM | 126 nM | ≤ 200 nM |
| COc1ccc2c(c1)nc(NCCCCNC(=O)[C@H](C(C)C)N1CCC(O)CC1)c1nnc(C)n12 [Example 316, 2-(S)-(4-hydroxy-piperidine-1-yl)-N-[4-(7-methoxy-1-methyl-[1,2,4]triazolo[4,3-a]quinoxaline-4-ylamino)-butyl]-3-methyl-butyramide] | ≤ 50 nM | 41 nM | 730 nM |  |
| COCCOc1ccc2c(c1)nc(NCCCCNC(=O)C(C)(C)C)c1nnc(C)n12 [Example 375, {4-[7-(2-methoxy-ethoxy)-1-methyl-[1,2,4]triazolo[4,3-a]quinoxaline-4-ylamino]-butyl}-2,2-dimethyl-propionamide] | ≤ 50 nM |  | 400 nM |  |
| COc1cc2nc(NCCCCNC(=O)CC(C)C)c3nnc(C)n3c2cc1NC(=O)CC(C)(C)C [Example 563] | ≤ 50 nM |  | 559 nM |  |
| Cc1nnc2c(NCCCCNC(=O)[C@@H](O)C(C)C)nc3cc4c(cc3n12)OCCO4 [Example 183, 2-(S)-hydroxy-3-methyl-N-[4-(1-methyl-8,9-dihydro-7,10-dioxa-2,3,5,11b-tetraaza-cyclopenta[a]anthracene-4-ylamino)-butyl]-butyramide] | ≤ 50 nM | 11 nM | 250 nM |  |
| Cc1nnc2c(NCCCCNC(=O)[C@H](O)C(C)C)nc3cc(N4C[C@@H](C)O[C@@H](C)C4)ccc3n12 [Example 512, N-{4-[7-(2,6-dimethyl-morpholine-4-yl)-1-methyl-[1,2,4]triazolo[4,3-a]quinoxaline-4-ylamino]-butyl}-2-(R)-hydroxy-3-methyl-butyramide] |  | 65 nM | 631 nM |  |

More lines, main results first:

| IC50 [1, 3] | IC50 [1, 4] | Structure (SMILES) | IC50 [2, 5] | IC50 [2, 6] |
| --- | --- | --- | --- | --- |
| ≤ 10 nM | 1 nM | CCCOC(=O)N[C@H](C(=O)NCCCCNc1nc2cc(OCCOC)ccc2n2c(C)nnc12)C(C)C [Example 399, (S)-(1-{4-[7-(2-methoxy-ethoxy)-1-methyl-[1,2,4]triazolo[4,3-a]quinoxaline-4-ylamino]-butylcarbamoyl}-2-methyl-propyl)-carbamic acid propylester] | 570 nM |  |
| ≤ 10 nM | 8 nM | Cc1nnc2c(NCCCCNC(=O)[C@@H](O)C(C)C)nc3cc(OCCN4CCOCC4)ccc3n12 [Example 435, 2-(S)-hydroxy-N-{4-[7-(2-morpholine-4-yl-ethoxy)-1-methyl-[1,2,4]triazolo[4,3-a]quinoxaline-4-ylamino]-butyl}-3-methyl-butyramide] | 110 nM |  |
| ≤ 10 nM | 2 nM | COCCOc1ccc2c(c1)nc(NCCCCNC(=O)Cc1ccccc1)c1nnc(C)n12 [Example 420, N-{4-[7-(2-methoxy-ethoxy)-1-methyl-[1,2,4]triazolo[4,3-a]quinoxaline-4-ylamino]-butyl}-2-phenyl-acetamide] | 180 nM | ≤ 200 nM |
| ≤ 10 nM |  | COc1cc(C)c2c(c1)nc(NCCCCNC(=O)CC(C)C)c1nnc(C)n12 [Example 458, [4-(7-methoxy-1,9-dimethyl-[1,2,4]triazolo[4,3-a]quinoxaline-4-ylamino)-butyl]-3-methyl-butyramide] | 530 nM |  |
| ≤ 10 nM | 7 nM | COc1ccc2c(c1)nc(NCCCCNC(=O)[C@@H](O)C(C)C)c1nnc(C)n12 [Example 299, 2-(S)-hydroxy-N-[4-(7-methoxy-1-methyl-[1,2,4]triazolo[4,3-a]quinoxaline-4-ylamino)-butyl]-3-methyl-butyramide] | 375 nM |  |
| ≤ 10 nM | 9 nM | COc1ccc2c(c1)nc(NCCCCNC(=O)C=C(C)C)c1nnc(C)n12 [Example 284, 3-methyl-butene-2-oic acid-[4-(7-methoxy-1-methyl-[1,2,4]triazolo[4,3-a]quinoxaline-4-ylamino)-butyl]-amide] | 173 nM | ≤ 200 nM |
| ≤ 10 nM | 7 nM | COCCOc1ccc2c(c1)nc(NCCCCNC(=O)C(NC(=O)OC(C)(C)C)C(C)C)c1nnc(C)n12 (stereo not shown) [Example 396, (1-{4-[7-(2-methoxy-ethoxy)-1-methyl-[1,2,4]triazolo[4,3-a]quinoxaline-4-ylamino]-butylcarbamoyl}-2-methyl-propyl)-carbamic acid-tert-butylester] | 760 nM |  |
| ≤ 10 nM | 7 nM | COCCOc1ccc2c(c1)nc(NCCCCNC(=O)Cc1ccco1)c1nnc(C)n12 [Example 407, 2-furan-2-yl-N-{4-[7-(2-methoxy-ethoxy)-1-methyl-[1,2,4]triazolo[4,3-a]quinoxaline-4-ylamino]-butyl}-acetamide] | 180 nM |  |
| ≤ 10 nM | 10 nM | CCOc1ccc2c(c1)nc(NCCCCNC(=O)OCC(C)C)c1nnc(C)n12 [Example 444, [4-(7-ethoxy-1-methyl-[1,2,4]triazolo[4,3-a]quinoxaline-4-ylamino)-butyl]-carbamic acid isobutylester] | 120 nM | ≤ 200 nM |
| ≤ 10 nM | 1 nM | COCCOc1ccc2c(c1)nc(NCCCCNC(=O)[C@@H](NC(=O)OC(C)C)C(C)C)c1nnc(C)n12 [Example 400, (S)-(1-{4-[7-(2-methoxy-ethoxy)-1-methyl-[1,2,4]triazolo[4,3-a]quinoxaline-4-ylamino]-butylcarbamoyl}-2-methyl-propyl)-carbamic acid isopropylester] | 200 nM |  |
| ≤ 10 nM | 2 nM | COCCOc1ccc2c(c1)nc(NCCCCNC(=O)[C@@H](O)C(C)C)c1nnc(C)n12 [Example 389, 2-(S)-hydroxy-N-{4-[7-(2-methoxy-ethoxy)-1-methyl-[1,2,4]triazolo[4,3-a]quinoxaline-4-ylamino]-butyl}-3-methyl-butyramide] | 79 nM | ≤ 200 nM |
